Results published in US6613718B2, “Aryl ether derivatives and processes for their preparation and herbicidal and desiccant compositions containing them” (Ishihara Sangyo Kaisha, Ltd., priority 2001, dated 2003).

Assays:
Assay type in all cases: in vivo
[1] = system: upland rice (Oryza sp., var.Tebonnet, RICE); test: Pre-emerge greenhouse screening, crop safety (phytotoxicity rating); conditions: 14 days after application
Text: (§1) A standard greenhouse herbicide activity screening system was used to evaluate the herbicidal efficacy and crop safety of these test compounds. Seven broadleaf weed species including redroot pigweed (Amaranthus retroflexus, AMARE), velvetleaf (Abutilon theophrasti, ABUTH), sicklepod (Cassia obtusifolia, CASOB), ivyleaf morningglory (Ipomoea hederacea, IPOHE), lambsquarters (Chenopodium album, CHEAL), common ragweed (Ambrosia artemisiifolia L., AMBEL), and cocklebur (Xanthium strumarium, XANST) were used as test species. Four grass weed species including green foxtail (Setaria viridis, SETVI), barnyardgrass (Echinochloa crus-galli, ECHCG), johnsongrass (Sorghum halepense, SORHA), and large crabgrass (Digitaria sanguinalis, DIGSA) were also used. In addition, three crop species, field corn (Zea mays L., var. Dekalb 535, CORN), soybean (Glycine max L., var. Pella 86, SOY), and upland rice (Oryza sp., var.Tebonnet, RICE) were included.
(§2) All plants were grown in 10 cm square plastic pots which were filled with a sandy loam soil mix. For pre-emerge tests, seeds were planted one day prior to application of the test compounds. For post-emerge tests, seeds were planted 8-21 days prior to the test to allow emergence and good foliage development prior to application of the test substances. At the time of the post-emerge application, plants of all species were usually at the 2-3 leaf stage of development.
(§3) All test compounds were dissolved in acetone and applied to the test units in a volume of 187 1/ha. Test materials were applied at rates ranging from 15 g ai/ha to 1000 g ai/ha using a track sprayer equipped with a TJ8001E even flow flat fan spray nozzle. Plants were arranged on a shelf so that the top of the canopy (post-emerge) or top of the soil surface (pre-emerge) was 40-45 cm below the nozzle. Pressurized air was used to force the test solution through the nozzle as it was mechanically advanced (via electrically driven chain drive) over the top of all test plants/pots. This application simulates a typical commercial field herbicide application.
(§4) In the post-emerge test, a commercial non-ionic surfactant was also included (0.25% v/v) to enhance wetting of the leaf surfaces of target plants. Immediately after application, test units of the pre-emerge applications were watered at the soil surface to incorporate the test materials. Subsequently, these test units were bottom-watered. Post-emerge test units were always bottom-watered.
(§5) At 14 days after application of the test materials, phytotoxicity ratings were recorded. A rating scale of 0-100 was used as previously described in Research Methods in Weed Science, 2nd edition, B. Truelove, Ed., Southern Weed Science Society, Auburn University, Auburn, Ala., 1977. Briefly, “0” corresponds to no damage and “100” corresponds to complete death of all plants in the test unit. This scale was used both to determine efficacy against weed species and damage to crop species. Herbicide activity data for various compounds of this invention, which are shown by compound No. in Tables I-VI, are shown in Tables VIII-IX.

[2] = system: soybean (Glycine max L., var. Pella 86, SOY); test: as above; conditions: 14 days after application
Text: as §1, §2, §3, §4, §5

[3] = system: field corn (Zea mays L., var. Dekalb 535, CORN); test: as above; conditions: 14 days after application
Text: as §1, §2, §3, §4, §5

[4] = system: upland rice (Oryza sp., var.Tebonnet, RICE); test: Post-emerge greenhouse screening, crop safety (phytotoxicity rating); conditions: 14 days after application
Text: as §1, §2, §3, §4, §5

[5] = system: soybean (Glycine max L., var. Pella 86, SOY); test: as above; conditions: 14 days after application
Text: as §1, §2, §3, §4, §5

[6] = system: barnyardgrass (Echinochloa crus-galli, ECHCG); test: Post-emerge greenhouse herbicide activity screening, phytotoxicity rating; conditions: 14 days after application
Text: as §1, §2, §3, §4, §5

[7] = system: green foxtail (Setaria viridis, SETVI); test: as above
Text: as §1, §2, §3, §4, §5

[8] = system: common ragweed (Ambrosia artemisiifolia L., AMBEL); test: as above
Text: as §1, §2, §3, §4, §5

[9] = system: large crabgrass (Digitaria sanguinalis, DIGSA); test: as above; conditions: 14 days after application
Text: as §1, §2, §3, §4, §5

[10] = system: sicklepod (Cassia obtusifolia, CASOB); test: as above
Text: as §1, §2, §3, §4, §5

[11] = system: velvetleaf (Abutilon theophrasti, ABUTH); test: as above; conditions: 14 days after application
Text: as §1, §2, §3, §4, §5

[12] = system: redroot pigweed (Amaranthus retroflexus, AMARE); test: as above
Text: as §1, §2, §3, §4, §5

[13] = system: lambsquarters (Chenopodium album, CHEAL); test: as above
Text: as §1, §2, §3, §4, §5

[14] = system: ivyleaf morningglory (Ipomoea hederacea, IPOHE); test: as above; conditions: 14 days after application
Text: as §1, §2, §3, §4, §5

[15] = system: johnsongrass (Sorghum halepense, SORHA); test: as above; conditions: 14 days after application
Text: as §1, §2, §3, §4, §5

[16] = system: barnyardgrass (Echinochloa crus-galli, ECHCG); test: Pre-emerge greenhouse herbicide activity screening, phytotoxicity rating; conditions: 14 days after application
Text: as §1, §2, §3, §4, §5

[17] = system: green foxtail (Setaria viridis, SETVI); test: as above; conditions: 14 days after application
Text: as §1, §2, §3, §4, §5

[18] = system: common ragweed (Ambrosia artemisiifolia L., AMBEL); test: as above; conditions: 14 days after application
Text: as §1, §2, §3, §4, §5

[19] = system: large crabgrass (Digitaria sanguinalis, DIGSA); test: as above; conditions: 14 days after application
Text: as §1, §2, §3, §4, §5

[20] = system: sicklepod (Cassia obtusifolia, CASOB); test: as above; conditions: 14 days after application
Text: as §1, §2, §3, §4, §5

[21] = system: velvetleaf (Abutilon theophrasti, ABUTH); test: as above; conditions: 14 days after application
Text: as §1, §2, §3, §4, §5

[22] = system: redroot pigweed (Amaranthus retroflexus, AMARE); test: as above; conditions: 14 days after application
Text: as §1, §2, §3, §4, §5

[23] = system: lambsquarters (Chenopodium album, CHEAL); test: as above; conditions: 14 days after application
Text: as §1, §2, §3, §4, §5

[24] = system: ivyleaf morningglory (Ipomoea hederacea, IPOHE); test: as above; conditions: 14 days after application
Text: as §1, §2, §3, §4, §5

[25] = system: johnsongrass (Sorghum halepense, SORHA); test: as above; conditions: 14 days after application
Text: as §1, §2, §3, §4, §5

[26] = system: field corn (Zea mays L., var. Dekalb 535, CORN); test: Post-emerge greenhouse screening, crop safety / corn selectivity (phytotoxicity rating); conditions: 14 days after application
Text: as §1, §2, §3, §4, §5

[27] = 125 g ai/ha, 14 days after application
[28] = 250 g ai/ha, 14 days after application

Q: Which results are given for Cn1c(C(F)(F)F)cc(=O)n(-c2cc(Oc3ccccc3N)c(Cl)cc2F)c1=S [Compound 1-48]?
A: RICE crop damage, phytotoxicity rating (0-100 scale) ([1]; 125 g ai/ha): 0; RICE crop damage, phytotoxicity rating (0-100 scale) ([1]; 250 g ai/ha): 8; SOY crop damage, phytotoxicity rating (0-100 scale) ([2]; 125 g ai/ha): 0; SOY crop damage, phytotoxicity rating (0-100 scale) ([2]; 250 g ai/ha): 0; CORN crop damage, phytotoxicity rating (0-100 scale) ([3]; 125 g ai/ha): 0; CORN crop damage, phytotoxicity rating (0-100 scale) ([3]; 250 g ai/ha): 5; RICE crop damage, phytotoxicity rating (0-100 scale) ([4]; 125 g ai/ha): 0; RICE crop damage, phytotoxicity rating (0-100 scale) ([4]; 250 g ai/ha): 35; SOY crop damage, phytotoxicity rating (0-100 scale) ([5]; 125 g ai/ha): 0; SOY crop damage, phytotoxicity rating (0-100 scale) ([5]; 250 g ai/ha): 0; ECHCG phytotoxicity rating (0-100 scale) ([6]; 125 g ai/ha): 0; ECHCG phytotoxicity rating (0-100 scale) ([6]; 250 g ai/ha): 0; SETVI phytotoxicity rating (0-100 scale) ([7]; 31.3 g ai/ha): 0; SETVI phytotoxicity rating (0-100 scale) ([7]; 62.5 g ai/ha): 30; SETVI phytotoxicity rating (0-100 scale) [7, 27]: 50; SETVI phytotoxicity rating (0-100 scale) [7, 28]: 60; AMBEL phytotoxicity rating (0-100 scale) ([8]; 31.3 g ai/ha): 60; AMBEL phytotoxicity rating (0-100 scale) ([8]; 62.5 g ai/ha): 50; AMBEL phytotoxicity rating (0-100 scale) [8, 27]: 60; AMBEL phytotoxicity rating (0-100 scale) [8, 28]: 75; DIGSA phytotoxicity rating (0-100 scale) ([9]; 125 g ai/ha): 25; DIGSA phytotoxicity rating (0-100 scale) ([9]; 250 g ai/ha): 50; CASOB phytotoxicity rating (0-100 scale) ([10]; 31.3 g ai/ha): 50; CASOB phytotoxicity rating (0-100 scale) ([10]; 62.5 g ai/ha): 75; CASOB phytotoxicity rating (0-100 scale) [10, 27]: 75; CASOB phytotoxicity rating (0-100 scale) [10, 28]: 75; ABUTH phytotoxicity rating (0-100 scale) ([11]; 125 g ai/ha): 85; ABUTH phytotoxicity rating (0-100 scale) ([11]; 250 g ai/ha): 95; AMARE phytotoxicity rating (0-100 scale) ([12]; 31.3 g ai/ha): 100; AMARE phytotoxicity rating (0-100 scale) ([12]; 62.5 g ai/ha): 100; AMARE phytotoxicity rating (0-100 scale) [12, 27]: 100; AMARE phytotoxicity rating (0-100 scale) [12, 28]: 100; CHEAL phytotoxicity rating (0-100 scale) ([13]; 31.3 g ai/ha): 80; CHEAL phytotoxicity rating (0-100 scale) ([13]; 62.5 g ai/ha): 99; CHEAL phytotoxicity rating (0-100 scale) [13, 27]: 100; CHEAL phytotoxicity rating (0-100 scale) [13, 28]: 100; IPOHE phytotoxicity rating (0-100 scale) ([14]; 125 g ai/ha): 80; IPOHE phytotoxicity rating (0-100 scale) ([14]; 250 g ai/ha): 75; SORHA phytotoxicity rating (0-100 scale) ([15]; 125 g ai/ha): 0; SORHA phytotoxicity rating (0-100 scale) ([15]; 250 g ai/ha): 0; ECHCG phytotoxicity rating (0-100 scale) ([16]; 125 g ai/ha): 80; ECHCG phytotoxicity rating (0-100 scale) ([16]; 250 g ai/ha): 85; SETVI phytotoxicity rating (0-100 scale) ([17]; 125 g ai/ha): 90; SETVI phytotoxicity rating (0-100 scale) ([17]; 250 g ai/ha): 99; AMBEL phytotoxicity rating (0-100 scale) ([18]; 125 g ai/ha): 70; AMBEL phytotoxicity rating (0-100 scale) ([18]; 250 g ai/ha): 70; DIGSA phytotoxicity rating (0-100 scale) ([19]; 125 g ai/ha): 55; DIGSA phytotoxicity rating (0-100 scale) ([19]; 250 g ai/ha): 75; CASOB phytotoxicity rating (0-100 scale) ([20]; 125 g ai/ha): 0; CASOB phytotoxicity rating (0-100 scale) ([20]; 250 g ai/ha): 0; ABUTH phytotoxicity rating (0-100 scale) ([21]; 125 g ai/ha): 90; ABUTH phytotoxicity rating (0-100 scale) ([21]; 250 g ai/ha): 100; AMARE phytotoxicity rating (0-100 scale) ([22]; 125 g ai/ha): 100; AMARE phytotoxicity rating (0-100 scale) ([22]; 250 g ai/ha): 100; CHEAL phytotoxicity rating (0-100 scale) ([23]; 125 g ai/ha): 100; CHEAL phytotoxicity rating (0-100 scale) ([23]; 250 g ai/ha): 100; IPOHE phytotoxicity rating (0-100 scale) ([24]; 125 g ai/ha): 80; IPOHE phytotoxicity rating (0-100 scale) ([24]; 250 g ai/ha): 100; SORHA phytotoxicity rating (0-100 scale) ([25]; 125 g ai/ha): 55; SORHA phytotoxicity rating (0-100 scale) ([25]; 250 g ai/ha): 85; CORN crop damage, phytotoxicity rating (0-100 scale) ([26]; 125 g ai/ha): 0; CORN crop damage, phytotoxicity rating (0-100 scale) ([26]; 250 g ai/ha): 10
